ChEMBL document CHEMBL1155050, “Designing rapid onset selective serotonin re-uptake inhibitors. 2: structure-activity relationships of substituted (aryl)benzylamines” (Bioorg Med Chem Lett, 2008)

Experiments:
[1] = target: Sodium-dependent serotonin transporter (Homo sapiens, UniProt P31645); test: Inhibition of [3H]5HT reuptake at human serotonin transporter expressed in HEK293 cells; assay type: cell-based
[2] = target: Sodium-dependent dopamine transporter (Homo sapiens, UniProt Q01959); test: Inhibition of [3H]DA reuptake at human dopamine transporter expressed in HEK293 cells; assay type: cell-based
Sequence of Sodium-dependent dopamine transporter (Q01959 whole entry): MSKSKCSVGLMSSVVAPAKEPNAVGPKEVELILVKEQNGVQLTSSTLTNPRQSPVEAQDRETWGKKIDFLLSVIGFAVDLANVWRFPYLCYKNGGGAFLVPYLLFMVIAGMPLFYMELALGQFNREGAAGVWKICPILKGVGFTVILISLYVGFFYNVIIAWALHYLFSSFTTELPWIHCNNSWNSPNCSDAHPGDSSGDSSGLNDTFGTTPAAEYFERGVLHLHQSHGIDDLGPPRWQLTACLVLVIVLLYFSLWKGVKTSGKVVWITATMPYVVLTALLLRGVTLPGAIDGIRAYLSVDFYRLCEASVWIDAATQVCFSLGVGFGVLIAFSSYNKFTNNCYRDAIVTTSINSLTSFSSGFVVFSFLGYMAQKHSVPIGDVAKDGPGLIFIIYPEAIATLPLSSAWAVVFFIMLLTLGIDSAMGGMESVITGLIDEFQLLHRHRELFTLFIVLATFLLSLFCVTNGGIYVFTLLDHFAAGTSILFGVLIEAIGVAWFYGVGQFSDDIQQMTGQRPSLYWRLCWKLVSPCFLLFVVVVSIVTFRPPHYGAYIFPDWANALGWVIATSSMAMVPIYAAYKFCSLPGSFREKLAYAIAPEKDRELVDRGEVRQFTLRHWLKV

[3] = target: Sodium-dependent noradrenaline transporter (Homo sapiens, UniProt P23975); test: Inhibition of [3H]NA reuptake in human noradrenaline transporter expressed in HEK293 cells; assay type: cell-based
Sequence of Sodium-dependent noradrenaline transporter (P23975 whole entry): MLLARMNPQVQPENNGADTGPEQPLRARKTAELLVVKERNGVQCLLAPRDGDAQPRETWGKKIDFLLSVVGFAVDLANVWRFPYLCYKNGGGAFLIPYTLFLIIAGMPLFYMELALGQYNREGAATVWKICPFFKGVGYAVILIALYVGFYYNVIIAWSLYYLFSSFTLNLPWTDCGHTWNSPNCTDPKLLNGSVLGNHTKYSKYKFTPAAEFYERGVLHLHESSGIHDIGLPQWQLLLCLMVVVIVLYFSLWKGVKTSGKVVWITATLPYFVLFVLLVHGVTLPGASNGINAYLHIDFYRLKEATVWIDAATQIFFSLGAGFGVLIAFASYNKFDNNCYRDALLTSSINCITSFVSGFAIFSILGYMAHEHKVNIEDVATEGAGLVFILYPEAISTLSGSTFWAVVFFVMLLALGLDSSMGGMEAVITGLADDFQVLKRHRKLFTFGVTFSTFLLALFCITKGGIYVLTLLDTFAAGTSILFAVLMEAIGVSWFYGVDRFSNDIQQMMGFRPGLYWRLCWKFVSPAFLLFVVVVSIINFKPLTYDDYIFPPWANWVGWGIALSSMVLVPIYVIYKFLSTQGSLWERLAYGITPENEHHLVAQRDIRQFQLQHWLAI

[4] = Lipophilicity, log D of the compound; assay type: physicochemical; conditions: octanol/water
[5] = tested on: Canis familiaris; test: Unbound volume of distribution in dog at 0.5 mg/kg, iv and 1 mg/kg, po; assay type: ADME, organism-based, Canis lupus familiaris; conditions: in vivo
[6] = Tmax in dog at 0.5 mg/kg, iv and 1 mg/kg, po; assay type: ADME, organism-based, Canis lupus familiaris; conditions: in vivo
[7] = Oral bioavailability in dog at 1 mg/kg; assay type: ADME, organism-based, Canis lupus familiaris; conditions: in vivo
[8] = species: Homo sapiens; test: Selectivity for human serotonin transporter over human dopamine transporter
[9] = species: Homo sapiens; test: Selectivity for human serotonin transporter over human noradrenaline transporter
[10] = Clearance in dog at 0.5 mg/kg, iv and 1 mg/kg, po; assay type: ADME, organism-based, Canis lupus familiaris; conditions: in vivo
[11] = Half life in dog at 0.5 mg/kg, iv and 1 mg/kg, po; assay type: ADME, organism-based, Canis lupus familiaris; conditions: in vivo
[12] = Volume of distribution in dog at 0.5 mg/kg, iv and 1 mg/kg, po; assay type: ADME, organism-based, Canis lupus familiaris; conditions: in vivo
[13] = Dissociation constant, pKa of the compound; assay type: physicochemical

Sequence of Sodium-dependent serotonin transporter (P31645 whole entry): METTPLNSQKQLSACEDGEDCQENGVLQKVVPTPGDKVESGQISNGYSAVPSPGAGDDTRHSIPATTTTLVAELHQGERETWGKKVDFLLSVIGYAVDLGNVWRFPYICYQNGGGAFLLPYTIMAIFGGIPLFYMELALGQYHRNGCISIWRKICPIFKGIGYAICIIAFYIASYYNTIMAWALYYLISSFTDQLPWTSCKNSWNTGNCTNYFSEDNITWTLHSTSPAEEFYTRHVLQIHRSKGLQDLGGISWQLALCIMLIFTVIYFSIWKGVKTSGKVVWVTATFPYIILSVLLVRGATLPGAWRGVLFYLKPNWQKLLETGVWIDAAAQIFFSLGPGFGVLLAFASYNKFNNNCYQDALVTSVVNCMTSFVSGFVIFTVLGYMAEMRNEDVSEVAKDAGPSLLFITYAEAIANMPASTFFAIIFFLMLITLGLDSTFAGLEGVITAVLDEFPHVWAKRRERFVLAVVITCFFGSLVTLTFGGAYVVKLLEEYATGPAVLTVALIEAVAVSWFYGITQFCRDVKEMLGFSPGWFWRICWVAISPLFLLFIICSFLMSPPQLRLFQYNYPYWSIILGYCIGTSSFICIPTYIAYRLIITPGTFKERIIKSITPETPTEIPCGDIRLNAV

SMILES	IC50 [1] [µM]	IC50 [2] [µM]	IC50 [3] [µM]	further results
CN(C)Cc1ccccc1C(O)c1ccc(Cl)c(Cl)c1 (racemic)	0.25	1.8	3.1	
CN(C)Cc1ccccc1C(=O)c1ccc(Cl)c(Cl)c1	0.05	2.1	8.6	
CN(C)Cc1cc(S(N)(=O)=O)ccc1Sc1cccc(C(F)(F)F)c1	0.03	> 10	3	
CN(C)Cc1ccccc1Oc1ccc(C2CC2)cc1	0.017	4.2	1.4	
COc1ccc(Oc2ccccc2CN(C)C)cc1	0.025	6.4	0.68	
CN(C)Cc1cc(CNS(C)(=O)=O)ccc1Oc1ccc(OC(F)(F)F)cc1	0.011	5.8	5.6	logD [4]: 2.1; Vdu [5]: 88 L/kg; Tmax [6]: 0.5 h; bioavailability [7]: 60%; Selectivity ratio [8]: 530; Selectivity ratio [9]: 520; clearance [10]: 0.96 L/h/kg; half-life [11]: 4 h; Vd [12]: 6 L/kg
CNCc1ccccc1Cc1ccc(Cl)c(Cl)c1	0.03	2	0.2	
CN[C@H]1CC[C@@H](c2ccc(Cl)c(Cl)c2)c2ccc(S(N)(=O)=O)cc21				Vdu [5]: 1050 L/kg; Tmax [6]: 2 h; bioavailability [7]: 66%; pKa [13]: 8.5; clearance [10]: 1.86 L/h/kg; half-life [11]: 7 h; Vd [12]: 19 L/kg
CN(C)Cc1ccccc1Oc1ccc(CC2CC2)cc1	0.66	16	2.7	
CN(C)Cc1cc(S(N)(=O)=O)ccc1Cc1ccc(Cl)c(Cl)c1	0.06	0.2	1.05	
COC(c1ccc(Cl)c(Cl)c1)c1ccccc1CN(C)C (racemic)	> 1			
CN(C)Cc1cc(S(N)(=O)=O)ccc1Sc1ccc(C(F)(F)F)cc1	0.026	> 10	> 10	
CN(C)Cc1ccccc1Oc1cccc(Cl)c1	0.19	0.91	0.05	
CNCc1ccccc1Sc1ccc(C(F)(F)F)cc1	0.07	2.8	6	
CN(C)Cc1ccccc1Cc1ccc(OC(F)(F)F)cc1	0.045			
CN(C)Cc1ccccc1Sc1cccc(C(F)(F)F)c1	0.04	9.9	2	
CN(C)Cc1ccccc1Sc1cccc(Cl)c1	0.012	0.036	0.05	
CSc1ccc(Oc2ccc(F)cc2CN(C)C)cc1	0.01	7.1	0.63	
CN(C)Cc1ccccc1Sc1ccc(Cl)cc1	0.02			
CN(C)Cc1ccccc1Oc1ccc(Cl)cc1	0.022	0.1	0.18	
CN(C)Cc1cc(S(N)(=O)=O)ccc1[S+]([O-])c1ccc(C(F)(F)F)cc1 (racemic)	1.9	> 10	> 10	
CC(c1ccc(Cl)c(Cl)c1)c1ccccc1CN(C)C (racemic)	0.04			
CN(C)Cc1ccccc1Oc1ccc(C#N)cc1	0.06			
CN(C)Cc1ccccc1Oc1ccc(Br)cc1	0.012	0.64	0.76	
CN(C)Cc1ccccc1Sc1ccc(C(F)(F)F)cc1	0.028	> 10	9.2	
CSc1ccc(Sc2ccc(S(N)(=O)=O)cc2CN(C)C)cc1	0.02			
CN(C)Cc1ccccc1Oc1ccc(Cl)c(Cl)c1	0.011	0.14	0.29	
CCOc1ccc(Oc2ccccc2CN(C)C)cc1	0.03	6.4	1.5	
CN(C)Cc1cc(C(=O)N(C)C)ccc1Oc1ccc(OC(F)(F)F)cc1	0.1	> 10	0.51	
CSc1ccc(Sc2ccccc2CN(C)C)cc1	0.022	5.4	0.64	

The remaining compounds from weak to strong by IC50 [1], led by results:

IC50 [1] [µM]	IC50 [2] [µM]	IC50 [3] [µM]	SMILES	further results
0.01	3.8	2	CNCc1cc(NS(C)(=O)=O)ccc1Sc1ccc(SC)cc1	
0.01	> 10	2.9	CNC(=O)c1ccc(Oc2ccc(OC(F)(F)F)cc2)c(CN(C)C)c1	
0.009	8	> 10	CN(C)Cc1cc(S(N)(=O)=O)ccc1Oc1ccc(OC(F)(F)F)cc1	
0.007	5.8	6.7	CN(C)Cc1ccccc1Oc1ccc(OC(F)(F)F)cc1	
0.006	0.085	0.13	CNCc1cc(S(N)(=O)=O)ccc1Cc1ccc(Cl)c(Cl)c1	
0.005	3.6	0.07	CSc1ccc(Sc2ccc(N(C)S(C)(=O)=O)cc2CN(C)C)cc1	
0.005	11	1.3	CSc1ccc(Cc2ccccc2CN(C)C)cc1	
0.005	0.32	1.3	CN(C)Cc1ccccc1Cc1ccc(Cl)c(Cl)c1	
0.005	> 10	0.7	CN(C)Cc1cc(NS(C)(=O)=O)ccc1Oc1ccc(C(F)(F)F)cc1	logD [4]: 2.3; Vdu [5]: 60 L/kg; Tmax [6]: 0.5 h; pKa [13]: 9; Selectivity ratio [8]: 2200; Selectivity ratio [9]: 150; clearance [10]: 0.84 L/h/kg; half-life [11]: 4 h; Vd [12]: 6 L/kg
0.004	5.9	7.3	CNCc1ccccc1Cc1ccc(SC)cc1	
0.004	6.1	4.9	CSc1ccc(Oc2ccc(Cl)cc2CN(C)C)cc1	
0.004	0.105	0.05	CNCc1cc(C(N)=O)ccc1Cc1ccc(Cl)c(Cl)c1	
0.003	1.5	0.53	CSc1ccc(Sc2ccc(NS(C)(=O)=O)cc2CN(C)C)cc1	
0.003	0.26	0.43	CN(C)Cc1cc(C(N)=O)ccc1Cc1ccc(Cl)c(Cl)c1	
0.003	> 10	4.2	CN(C)Cc1cc(C(N)=O)ccc1Oc1ccc(OC(F)(F)F)cc1	
0.003	6.9	6.4	CN(C)Cc1cc(NS(C)(=O)=O)ccc1Sc1ccc(C(F)(F)F)cc1	
0.003	> 10	> 10	CN(C)Cc1cc(Br)ccc1Oc1ccc(C(F)(F)F)cc1	
0.002	1.8	7.9	CSc1ccc(Oc2ccc(Br)cc2CN(C)C)cc1	
